Values of other authors as cited in patent US20060122197A1, “Amido compounds and their use as pharmaceuticals” (priority 2004, published 2006).

Molecular target: T1, 11βHSD1 in the eye (Homo sapiens, UniProt P28845)
T1 construct: host or cells: eye of healthy volunteers (in vivo)
Settings: healthy volunteers; after seven days of carbenoxolone treatment

T1 sequence (P28845 whole entry): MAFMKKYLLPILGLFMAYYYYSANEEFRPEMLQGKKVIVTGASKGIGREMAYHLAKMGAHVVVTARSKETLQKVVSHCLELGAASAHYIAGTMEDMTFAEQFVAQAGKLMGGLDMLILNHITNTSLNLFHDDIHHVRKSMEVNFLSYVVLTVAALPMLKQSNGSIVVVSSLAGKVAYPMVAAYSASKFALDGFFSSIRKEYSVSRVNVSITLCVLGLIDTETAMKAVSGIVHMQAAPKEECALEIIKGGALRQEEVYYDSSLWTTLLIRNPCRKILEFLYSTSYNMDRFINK

IOP was reduced by: 18%
Structure (SMILES): CC1(C)[C@@H](OC(=O)CCC(=O)O)CC[C@]2(C)[C@H]3C(=O)C=C4[C@@H]5C[C@@](C)(C(=O)O)CC[C@]5(C)CC[C@@]4(C)[C@]3(C)CC[C@@H]12 [carbenoxolone]
